Reference: patent US20260042762A1 (Kymera Therapeutics, Inc., priority 2018, published 2026)
Structures can show the parent of a compound that is named as a salt.

How the values were obtained:
MerTK [1] = biological target: T1, MerTK (Homo sapiens, UniProt Q12866); experiment: MerTk degradation in Jurkat cells (Western blot); assay type: cell-based; conditions: Jurkat, 4 h, 0.001-1 μM, 4 hour-incubation at 37° C., read-out: Jurkat Max % MerTK Degradation
T1 construct: endogenous in cells; host or cells: Jurkat cells
T1 sequence (Q12866 21-999): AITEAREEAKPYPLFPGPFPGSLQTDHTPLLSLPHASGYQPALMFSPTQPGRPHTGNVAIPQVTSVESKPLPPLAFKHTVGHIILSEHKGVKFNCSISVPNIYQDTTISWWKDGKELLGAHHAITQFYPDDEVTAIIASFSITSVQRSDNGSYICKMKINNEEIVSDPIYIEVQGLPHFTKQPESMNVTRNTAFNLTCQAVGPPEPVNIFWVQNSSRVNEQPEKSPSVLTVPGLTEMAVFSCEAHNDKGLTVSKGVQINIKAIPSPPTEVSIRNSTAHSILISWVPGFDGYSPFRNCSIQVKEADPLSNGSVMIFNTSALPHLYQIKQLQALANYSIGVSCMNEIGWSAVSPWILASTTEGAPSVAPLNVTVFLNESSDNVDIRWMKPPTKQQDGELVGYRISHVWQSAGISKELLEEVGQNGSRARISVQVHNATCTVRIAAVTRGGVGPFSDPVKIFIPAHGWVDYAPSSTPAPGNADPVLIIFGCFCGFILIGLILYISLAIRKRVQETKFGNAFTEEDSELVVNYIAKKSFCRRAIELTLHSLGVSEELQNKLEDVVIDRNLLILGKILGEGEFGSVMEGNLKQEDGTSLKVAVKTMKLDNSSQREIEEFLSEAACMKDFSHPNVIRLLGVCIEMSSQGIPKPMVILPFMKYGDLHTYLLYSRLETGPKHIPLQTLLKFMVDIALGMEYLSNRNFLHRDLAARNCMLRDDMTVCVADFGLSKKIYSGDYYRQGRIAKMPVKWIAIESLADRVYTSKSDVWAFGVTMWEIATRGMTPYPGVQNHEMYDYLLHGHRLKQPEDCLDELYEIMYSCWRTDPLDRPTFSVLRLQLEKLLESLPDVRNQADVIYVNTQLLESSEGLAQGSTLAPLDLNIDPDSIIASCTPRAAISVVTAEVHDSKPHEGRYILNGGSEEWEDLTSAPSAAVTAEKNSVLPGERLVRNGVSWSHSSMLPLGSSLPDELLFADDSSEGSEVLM
Outline: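 Jurkat cells treated 4 h at 37 °C with compound at 0.001-1 μM final. RIPA lysates quantified by BCA, then MerTK probed by Western blot against actin loading control with IR-dye secondaries and Odyssey imaging.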

MerTK [2] = biological target: T2, MerTK (Mus musculus, UniProt Q60805); experiment: MerTK degradation in RAW264 cells (Western blot); assay type: cell-based; conditions: RAW264.7, 0.001-1 μM, 4 hour-incubation at 37° C., read-out: RAW264 Max % MerTK Degradation
T2 construct: endogenous in cells; host or cells: RAW264 cells
T2 sequence (Q60805 19-994): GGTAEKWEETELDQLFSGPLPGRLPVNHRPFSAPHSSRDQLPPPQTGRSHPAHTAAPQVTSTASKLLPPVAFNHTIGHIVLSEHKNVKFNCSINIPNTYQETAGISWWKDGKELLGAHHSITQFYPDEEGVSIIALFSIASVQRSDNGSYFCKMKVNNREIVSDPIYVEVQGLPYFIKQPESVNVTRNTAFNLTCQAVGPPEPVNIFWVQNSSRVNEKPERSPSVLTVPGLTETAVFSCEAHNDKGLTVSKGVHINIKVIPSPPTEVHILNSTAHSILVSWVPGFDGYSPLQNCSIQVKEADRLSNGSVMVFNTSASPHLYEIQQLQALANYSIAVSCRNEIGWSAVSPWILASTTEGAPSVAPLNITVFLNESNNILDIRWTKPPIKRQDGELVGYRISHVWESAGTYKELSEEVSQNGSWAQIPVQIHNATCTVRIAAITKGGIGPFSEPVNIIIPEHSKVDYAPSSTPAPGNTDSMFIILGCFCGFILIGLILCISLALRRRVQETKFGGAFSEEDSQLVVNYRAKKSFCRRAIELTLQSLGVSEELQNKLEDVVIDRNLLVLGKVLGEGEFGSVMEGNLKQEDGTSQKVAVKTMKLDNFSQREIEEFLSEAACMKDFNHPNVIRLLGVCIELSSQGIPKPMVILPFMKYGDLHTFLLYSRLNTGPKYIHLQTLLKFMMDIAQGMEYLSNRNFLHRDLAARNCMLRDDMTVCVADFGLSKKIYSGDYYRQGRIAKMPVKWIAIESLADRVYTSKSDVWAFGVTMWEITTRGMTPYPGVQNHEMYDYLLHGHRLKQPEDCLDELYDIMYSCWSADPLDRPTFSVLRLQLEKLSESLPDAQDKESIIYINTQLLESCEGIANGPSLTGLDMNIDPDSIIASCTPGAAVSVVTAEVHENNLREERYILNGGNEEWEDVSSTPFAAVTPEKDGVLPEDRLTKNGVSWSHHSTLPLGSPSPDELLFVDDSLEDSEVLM
Method: Compounds were reconstituted in DMSO to make 10 mM stock solutions. RAW264 cells were maintained in DMEM medium containing 10% FBS. Cells were seeded into 6-well plates with 2×10^6 cells per well. 2 μL of diluted compounds were added to cells to the final concentration of 0.001-1 μM. After a 4 hour-incubation at 37° C., cells were washed with DPBS (1×) once. Then RIPA lysis buffer with Halt Protease and Phosphatase Inhibitor Cocktail was added directly to the cells and cells were then incubated on ice for 10 min, then lysate was harvested into 1.5 mL Eppendorf tubes and centrifuged at 14,000 rpm for 10 min at 4° C. and the supernatants were collected for Western blots.
The protein concentration of cell lysates was quantified with Pierce™ BCA Protein Assay Kit. […] BCA working reagents were prepared by mixing BCA reagent A with reagent B in 50: 1 ratio. 200 μL of the BCA working reagents were added to 25 μL of BCA standard or cell lysates in microplate, and mixed thoroughly on a plate shaker for 30 seconds. After incubation at 37° C. for 30 min, the absorbance of samples at 562 nm were measured with EnVision Plate Reader.
Protein lysates were prepared in NuPAGE™ LDS sample buffer and NuPAGE™ sample reducing agent, and incubated at 95° C. for 5 min. […] The proteins were transferred to low fluorescence PVDF membranes using the Trans-Blot Turbo Transfer System. Membranes were then blocked in Odyssey blocking buffer at RT for 1 h followed by primary incubation at 4° C. overnight. The primary antibodies were MerTK goat polyclonal antibody and actin mouse monoclonal antibody. Membranes were washed three times with TBST (1×), and then incubated with IR Dye 800 CW Donkey anti-goat and IR Dye 700 CW Goat anti-mouse secondary antibodies in 1:10,000 dilution at RT for 1 h. The Western blot images were obtained using Odyssey Imaging System.

SMILES | Dmax (MerTK [1]) | Dmax (MerTK [2])
CCCCNc1ncc(-c2ccc(CN3CCN(CCOCCOCCOCCOCCNc4cccc5c4C(=O)N(C4CCC(=O)NC4=O)C5=O)CC3)cn2)c(N[C@H]2CC[C@H](O)CC2)n1 (stereo partly drawn) [I-25, 4-[15-[4-([6-[2-(Butylamino)-4-[[trans-4-hydroxycyclohexyl]amino]pyrimidin-5-yl]pyridin-3-yl]methyl)piperazin-1-yl]-4,7,10,13-tetraoxa-1-azapentadecan-1-yl]-2-(2,6-dioxopiperidin-3-yl)-2,3-dihydro-1H-isoindole-1,3-dione] | > 50% | > 50%
Cc1ccc(CNc2ncc3c(-c4ccc(CN5CCN(CCOCCOCCOCCOCCNc6cccc7c6C(=O)N(C6CCC(=O)NC6=O)C7=O)CC5)cc4)cn([C@H]4CC[C@H](O)CC4)c3n2)cc1 (stereo partly drawn) [I-26, 2-(2,6-Dioxopiperidin-3-yl)-4-[15-(4-[[4-(2-[[(4-methylphenyl)methyl]amino]-7-[trans-4-hydroxycyclohexyl]-7H-pyrrolo[2,3-d]pyrimidin-5-yl)phenyl]methyl]piperazin-1-yl)-4,7,10,13-tetraoxa-1-azapentadecan-1-yl]-2,3-dihydro-1H-isoindole-1,3-dione formate] | > 50% | > 50%
CCCCNc1ncc2c(-c3ccc(S(=O)(=O)N4CCN(C(=O)CCCCCCCCCCNC(=O)COc5cccc6c5C(=O)N(C5CCC(=O)NC5=O)C6=O)CC4)cc3)nn([C@H]3CC[C@H](O)CC3)c2n1 (stereo partly drawn) [I-28, N-(11-(4-((4-(6-(Butylamino)-1-(trans-4-hydroxycyclohexyl)-1H-pyrazolo[3,4-d]pyrimidin-3-yl)phenyl)sulfonyl)piperazin-1-yl)-11-oxoundecyl)-2-((2-(2,6-dioxopiperidin-3-yl)-1,3-dioxoisoindolin-4-yl)oxy)acetamide] | > 50% | > 50%
CCCCNc1ncc2c(-c3ccc(CN4CCN(CCOCCOCCOCCOCCNc5cccc6c5n(C)c(=O)n6C5CCC(=O)NC5=O)CC4)cc3)nn([C@H]3CC[C@H](O)CC3)c2n1 (stereo partly drawn) [I-37, trans-3-(4-[15-[4-([4-[6-(butylamino)-1-[4-hydroxycyclohexyl]-1H-pyrazolo[3,4-d]pyrimidin-3-yl]phenyl]methyl)piperazin-1-yl]-4,7,10,13-tetraoxa-1-azapentadecan-1-yl]-3-methyl-2-oxo-2,3-dihydro-1H-1,3-benzodiazol-1-yl)piperidine-2,6-dione] | > 50% | > 50%

Results, then the molecule that gave them:

Dmax (MerTK [1]) | Dmax (MerTK [2]) | SMILES
> 50% | > 50% | CCCCNc1ncc2c(-c3ccc(S(=O)(=O)N4CCN(C(=O)CCCCCCCCCCC(=O)N[C@H](C(=O)N5C[C@H](O)C[C@H]5C(=O)NCc5ccc(-c6scnc6C)cc5)C(C)(C)C)CC4)cc3)nn([C@H]3CC[C@H](O)CC3)c2n1 [I-27, (2S,4R)-1-((S)-2-(12-(4-((4-(6-(Butylamino)-1-(trans-4-hydroxycyclohexyl)-1H-pyrazolo[3,4-d]pyrimidin-3-yl)phenyl)sulfonyl)piperazin-1-yl)-12-oxododecanamido)-3,3-dimethylbutanoyl)-4-hydroxy-N-(4-(4-methylthiazol-5-yl)benzyl)pyrrolidine-2-carboxamide]
> 50% | > 50% | CCCCNc1ncc2c(-c3ccc(S(=O)(=O)N4CCN(C(=O)NCCCOCCCOCCCc5cccc6c5n(C)c(=O)n6C5CCC(=O)NC5=O)CC4)cc3)nn([C@H]3CC[C@H](O)CC3)c2n1 (stereo partly drawn) [I-29, 4-((4-(6-(Butylamino)-1-(trans-4-hydroxycyclohexyl)-1H-pyrazolo[3,4-d]pyrimidin-3-yl)phenyl)sulfonyl)-N-(3-(3-(3-(1-(2,6-dioxopiperidin-3-yl)-3-methyl-2-oxo-2,3-dihydro-1H-benzo[d]imidazol-4-yl)propoxy)propoxy)propyl)piperazine-1-carboxamide]
> 50% | > 50% | CCCCNc1ncc2c(-c3ccc(CN4CCN(CCOCCOCCOCCOCCCc5ccc6c(c5)n(C)c(=O)n6C5CCC(=O)NC5=O)CC4)cc3)nn([C@H]3CC[C@H](O)CC3)c2n1 (stereo partly drawn) [I-38, trans-3-(5-[1-[4-([4-[6-(butylamino)-1-[4-hydroxycyclohexyl]-1H-pyrazolo[3,4-d]pyrimidin-3-yl]phenyl]methyl)piperazin-1-yl]-3,6,9,12-tetraoxapentadecan-15-yl]-3-methyl-2-oxo-2,3-dihydro-1H-1,3-benzodiazol-1-yl)piperidine-2,6-dione]
> 50% | > 50% | CCCCNc1ncc2c(-c3ccc(CN4CCN(CCOCCOCCOCCCc5ccc6c(c5)n(C)c(=O)n6C5CCC(=O)NC5=O)CC4)cc3)cn([C@H]3CC[C@H](O)CC3)c2n1 (stereo partly drawn) [I-40, 3-(5-[3-[2-(2-[2-[4-([4-[2-(Butylamino)-7-[trans-4-hydroxycyclohexyl]-7H-pyrrolo[2,3-d]pyrimidin-5-yl]phenyl]methyl)piperazin-1-yl]ethoxy]ethoxy)ethoxy]propyl]-3-methyl-2-oxo-2,3-dihydro-1H-1,3-benzodiazol-1-yl)piperidine-2,6-dione formic acid]
